Laboratory results published in patent US7420056B2, “Substituted bicyclic imidazo-3-ylamine compounds” (Gruenenthal GmbH, priority 2004, dated 2008).
Structures can show the parent of a compound that is named as a salt.

molecular target: mGluR5 receptor (Sus scrofa, UniProt I3LUI7); assay: Affinity for the mGluR5 receptor: inhibition of 3[H]-MPEP binding in pig brain homogenate; settings: 10 μM compound, 5 nM 3[H]-MPEP, read-out: mGluR5 receptor inhibition of ^3[H]-MPEP binding [10 μM] in % at a concentration of the example compounds of 10 μM
Experimental: 1. Method for Determining Affinity for the mGluR5 Receptor
Pig brain homogenate is produced by homogenisation (Polytron Pt 3000, Kinematica AG, 10,000 revolutions per minute for 90 seconds) of pig brain hemispheres without medulla, cerebellum and pons in a buffer of pH 8.0 (30 mM Hepes, Sigma, order number H3375+1 tablet Complete Roche Diagnostics, order number 1836145 made up to 100 ml) in a ratio of 1:20 (brain weight/volume) and differential centrifugation at 900×g and 40,000×g. 450 μg of protein from brain homogenate is incubated in each case in 250 μl incubation batches in 96-well microtitre plates with 5 nM 3[H]-MPEP (Tocris, order number R1212) (MPEP=2-methyl-6-[…]) and the compounds to be investigated (10 μM in the test) in the buffer (as above) at room temperature for 60 minutes.
The batches are then filtered with the assistance of a Brandel Cell Harvester (Brandel, Grade Robotic 9600) on Unifilter plates with glass filter mats (Perkin Elmer, order number 6005177) and then washed 3 times with buffer (as above) using 250 μl per sample. The filter plates are then dried for 60 minutes at 55° C. Then 30 μl of Ultima Gold™ scintillating material (Packard BioScience, order number 6013159) is added per well and after 3 hours the samples are measured using the β counter (Microbeta, Perkin Elmer). Nonspecific binding is determined by the addition of 10 μM MPEP (Tocris, order number 1212).

Sequence of mGluR5 receptor (I3LUI7 19-1212): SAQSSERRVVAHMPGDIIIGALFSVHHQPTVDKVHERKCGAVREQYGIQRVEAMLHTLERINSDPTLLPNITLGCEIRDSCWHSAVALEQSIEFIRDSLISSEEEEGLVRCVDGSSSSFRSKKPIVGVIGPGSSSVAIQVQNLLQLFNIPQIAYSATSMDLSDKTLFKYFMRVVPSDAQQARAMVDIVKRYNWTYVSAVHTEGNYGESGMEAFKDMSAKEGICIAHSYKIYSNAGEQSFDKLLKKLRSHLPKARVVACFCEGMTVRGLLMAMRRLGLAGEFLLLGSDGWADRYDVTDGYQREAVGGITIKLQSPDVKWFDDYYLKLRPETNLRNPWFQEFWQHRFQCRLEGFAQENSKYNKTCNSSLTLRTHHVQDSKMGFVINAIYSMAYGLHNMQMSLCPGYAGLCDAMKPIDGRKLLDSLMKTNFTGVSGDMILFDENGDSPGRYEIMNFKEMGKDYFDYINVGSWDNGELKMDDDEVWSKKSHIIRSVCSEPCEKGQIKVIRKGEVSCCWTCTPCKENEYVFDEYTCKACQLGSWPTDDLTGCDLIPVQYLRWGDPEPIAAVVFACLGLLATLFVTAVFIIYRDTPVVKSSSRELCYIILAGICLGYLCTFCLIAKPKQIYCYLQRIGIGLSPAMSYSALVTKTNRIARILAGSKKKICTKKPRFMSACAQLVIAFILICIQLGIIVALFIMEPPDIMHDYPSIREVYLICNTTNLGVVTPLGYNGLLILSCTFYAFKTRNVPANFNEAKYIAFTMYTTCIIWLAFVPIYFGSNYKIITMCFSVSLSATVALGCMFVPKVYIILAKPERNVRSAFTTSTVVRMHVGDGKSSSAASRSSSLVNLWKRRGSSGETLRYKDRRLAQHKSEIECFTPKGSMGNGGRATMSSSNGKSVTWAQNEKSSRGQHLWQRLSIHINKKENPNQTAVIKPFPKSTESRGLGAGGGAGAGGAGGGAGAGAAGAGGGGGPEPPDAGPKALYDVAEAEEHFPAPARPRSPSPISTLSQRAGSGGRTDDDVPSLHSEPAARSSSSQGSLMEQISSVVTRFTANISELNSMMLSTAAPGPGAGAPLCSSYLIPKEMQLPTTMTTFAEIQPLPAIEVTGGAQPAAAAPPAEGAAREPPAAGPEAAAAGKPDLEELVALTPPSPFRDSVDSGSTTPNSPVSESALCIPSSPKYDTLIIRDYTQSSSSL

Compound	inhibition at 10 µM [%]
CCCCNc1c(-c2cc(C#Cc3ccccc3)cs2)nc2cnccn12 [Example 57, butyl-[2-(4-phenylethynyl-thiophen-2-yl)-imidazo[1,2-a]pyrazin-3-yl]-amine]	94
Cc1ccn2c(Nc3ccc(F)cc3)c(-c3cccc(C#Cc4ccccn4)c3)nc2c1 [Example 277, N-(4-fluorophenyl)-7-methyl-2-(3-(pyridin-2-ylethynyl)phenyl)imidazo[1,2-a]pyridin-3-amine]	95
Cc1cccc(C#Cc2cccc(-c3nc4ncccn4c3NC3CCCC3)c2)n1 [Example 259, N-cyclopentyl-2-(3-((6-methylpyridin-2-yl)ethynyl)phenyl)imidazo[1,2-a]pyrimidin-3-amine]	82
CCc1ccn2c(NC(C)(C)C)c(-c3ccc(C#Cc4ccccc4)nc3)nc2c1 [Example 303, N-tert-butyl-7-ethyl-2-(6-(phenylethynyl)pyridin-3-yl)imidazo[1,2-a]pyridin-3-amine]	67
Cc1cccn2c(Nc3ccco3)c(-c3ccc(C#Cc4ccccc4)o3)nc12 [Example 223, N-(furan-2-yl)-8-methyl-2-(5-(phenylethynyl)furan-2-yl)imidazo[1,2-a]pyridin-3-amine]	80
CC(C)(C)Nc1c(-c2ccc(C#Cc3ccccn3)cc2)nc2ccc(Cl)cn12 [Example 314, N-tert-butyl-6-chloro-2-(4-(pyridin-2-ylethynyl)phenyl)imidazo[1,2-a]pyridin-3-amine]	79
CCc1ccn2c(NC(C)(C)C)c(-c3ccc(C#Cc4ccccn4)o3)nc2c1 [Example 304, N-tert-butyl-7-ethyl-2-(5-(pyridin-2-ylethynyl)furan-2-yl)imidazo[1,2-a]pyridin-3-amine]	94
Cc1cc(C)n2c(Nc3cccc(C(F)(F)F)c3)c(-c3cc(C#Cc4ccccc4)cs3)nc2n1 [Example 226, 5,7-dimethyl-2-(4-(phenylethynyl)thiophen-2-yl)-N-(3-(trifluoromethyl)phenyl)imidazo[1,2-a]pyrimidin-3-amine]	41
CCc1ccn2c(NC(C)(C)CC(C)(C)C)c(-c3ccc(C#Cc4ccccn4)s3)nc2c1 [Example 299, 7-ethyl-2-(5-(pyridin-2-ylethynyl)thiophen-2-yl)-N-(2,4,4-trimethylpentan-2-yl)imidazo[1,2-a]pyridin-3-amine]	86
Cc1nc(C#Cc2ccccc2)ccc1-c1nc2ccccn2c1Nc1ccc(F)cc1 [Example 266, N-(4-fluorophenyl)-2-(2-methyl-6-(phenylethynyl)pyridin-3-yl)imidazo[1,2-a]pyridin-3-amine]	63
C(#Cc1ccc(-c2nc3cnccn3c2NC2CCCC2)o1)c1ccccc1 [Example 216, N-cyclopentyl-2-(5-(phenylethynyl)furan-2-yl)imidazo[1,2-a]pyrazin-3-amine]	49
Cc1cc(C)n2c(NC(C)(C)C)c(-c3ccc(C#Cc4ccccn4)o3)nc2n1 [Example 295, N-tert-butyl-5,7-dimethyl-2-(5-(pyridin-2-ylethynyl)furan-2-yl)imidazo[1,2-a]pyrimidin-3-amine]	84
COc1cccc(CNc2c(-c3ccc(C#Cc4ccccc4)s3)nc3ccccn23)c1 [Example 25, (3-methoxy-benzyl)-[2-(5-phenylethynyl-thiophen-2-yl)-imidazo[1,2-a]pyridin-3-yl]-amine]	81
Cc1cccc(C#Cc2cccc(-c3nc4cc(C(C)C)ccn4c3NC(C)(C)C)c2)n1 [Example 309, N-tert-butyl-7-isopropyl-2-(3-((6-methylpyridin-2-yl)ethynyl)phenyl)imidazo[1,2-a]pyridin-3-amine]	82
COc1cccc(Nc2c(-c3ccc(C#Cc4ccccc4)s3)nc3c(OCc4ccccc4)cccn23)c1 [Example 20, [8-benzyloxy-2-(5-phenylethynyl-thiophen-2-yl)-imidazo[1,2-a]pyridin-3-yl]-(3-methoxy-phenyl)-amine]	79
Cc1cc(C)n2c(NC3CCCCC3)c(-c3ccc(C#Cc4ccccc4)nc3C)nc2n1 [Example 293, N-cyclohexyl-5,7-dimethyl-2-(2-methyl-6-(phenylethynyl)pyridin-3-yl)imidazo[1,2-a]pyrimidin-3-amine]	70

same assay, conditions: 3[H]-MPEP binding

Compound	IC50 [nM]
CC(C)(C)Nc1c(-c2ccc(C#Cc3ccsc3)s2)nc2ccccn12 [Example 350, N-tert-butyl-2-(5-(thiophen-3-ylethynyl)thiophen-2-yl)imidazo[1,2-a]pyridin-3-amine hydrochloride]	570
Cc1cccn2c(NC(C)(C)C)c(-c3ccc(C#Cc4ccccc4)s3)nc12 [Example 97, N-tert-butyl-8-methyl-2-(5-(phenylethynyl)thiophen-2-yl)imidazo[1,2-a]pyridin-3-amine]	590
CN(C)c1cccc(C#Cc2ccc(-c3nc4cnccn4c3NC(C)(C)C)s2)c1 [Example 157, N-tert-butyl-2-(5-((3-(dimethylamino)phenyl)ethynyl)thiophen-2-yl)imidazo[1,2-a]pyrazin-3-amine hydrochloride]	1550
Cc1ccc(C#Cc2ccc(-c3nc4cnccn4c3NC(C)(C)C)s2)cc1 [Example 161, N-tert-butyl-2-(5-(p-tolylethynyl)thiophen-2-yl)imidazo[1,2-a]pyrazin-3-amine]	7740
CC(C)(C)Nc1c(-c2ccc(C#Cc3cccc(N)c3)s2)nc2ccccn12 [Example 347, 2-(5-((3-aminophenyl)ethynyl)thiophen-2-yl)-N-tert-butylimidazo[1,2-a]pyridin-3-amine hydrochloride]	920
Cc1ccc(C#Cc2ccc(-c3nc4cnccn4c3NC(C)(C)C)s2)s1 [Example 135, N-tert-butyl-2-(5-((5-methylthiophen-2-yl)ethynyl)thiophen-2-yl)imidazo[1,2-a]pyrazin-3-amine hydrochloride]	1200
CC(C)(C)CC(C)(C)Nc1c(-c2ccc(C#Cc3ccccc3)s2)nc2ccccn12 [Example 59, [2-(5-phenylethynyl-thiophen-2-yl)-imidazo[1,2-a]pyridin-3-yl]-(1,1,3,3-tetramethyl-butyl)-amine]	2070
CC(C)(C)Nc1c(-c2ccc(C#Cc3ccc(F)c(C#N)c3)s2)nc2ccccn12 [Example 344, 5-((5-(3-(tert-butylamino)imidazo[1,2-a]pyridin-2-yl)thiophen-2-yl)ethynyl)-2-fluorobenzonitrile hydrochloride]	170
CC(C)(C)Nc1c(-c2ccc(C#Cc3cnccn3)s2)nc2cnccn12 [Example 107, N-tert-butyl-2-(5-(pyrazin-2-ylethynyl)thiophen-2-yl)imidazo[1,2-a]pyrazin-3-amine]	52
CC(C)(C)Nc1c(-c2ccc(C#Cc3ncccn3)s2)nc2cnccn12 [Example 129, N-tert-butyl-2-(5-(pyrimidin-2-ylethynyl)thiophen-2-yl)imidazo[1,2-a]pyrazin-3-amine hydrochloride]	12
Cc1cc(C#Cc2ccccn2)sc1-c1nc2cnccn2c1NC(C)(C)C [Example 183, N-tert-butyl-2-(3-methyl-5-(pyridin-2-ylethynyl)thiophen-2-yl)imidazo[1,2-a]pyrazin-3-amine hydrochloride]	230
